Data on one compound can be found in patent US7235687B2, “Derivatives of 4,4′-dithiobis-(3-aminobutane-1-sulfphonates) and compositions containing same” (Institut National de la Sante et de la Recherche Medicale …, priority 2002, dated 2007).

This test has as its system Deoxycorticosterone acetate (DOCA)-salt hypertensive rats. As to the kind of experiment: Effect on blood pressure in DOCA-salt hypertensive rats. Format: in vivo, rat. The note with it: DOCA-salt hypertensive male Wistar Kyoto rats; oral gavage in water at 15 mg/kg; 4.5 hours after administration. The procedure:
Deoxycorticosterone acetate (DOCA)-salt hypertensive rats were obtained according to Pham, I. et al (1993) J. Pharmacol. Exp. Ther. 265, 1339–1347 with the following modifications: under pentobarbital anaesthesia, unilateral nephrectomy was performed in male Wistar Kyoto rats (300 g) and a pellet of 50 mg of DOCA was implanted s.c. After surgery, the rats were fed on standard rat chow and the drinking water was supplemented with 0.9% NaCl and 0.2% KCl. Hypertension developed 3 weeks after surgery.
To record arterial blood pressure, DOCA-salt rats were anaesthetized with pentobarbital sodium (50 mg/kg i.p., Sentravet laboratory, Plancoët, France), a femoral artery catheter (PE50) filled with heparinized saline (250 U/ml) was inserted, then brought under the skin and emerged at the nape of the neck. A flexible metal spring was attached to the skull and neck of the rat and connected to dual channel swivels mounted directly above the cage. This arrangement allowed the rat free movement inside the cage. […] Mean arterial BP was continuously recorded throughout each experiment using a COBE CDX III pressure transducer (Phymep, Paris, France) connected to the MacLab system (Phymep, Paris, France) composed of a MacLab technology unit and Chart software running on a Macintosh computer. […]

Regarding `Cl.Cl.NC(CCS(=O)(=O)[O-])CSSCC(N)CCS(=O)(=O)[O-].[Na+].[Na+]` (stereo not shown) [Example 1, 4,4′ dithiobis (sodium 3-aminobutane-1-sulfonate) bis chlorohydrate], the “decrease of mean arterial blood pressure” value amounted to 3680 Pa.
